Results as given in PubChem BioAssay AID1845215 (Molecular Pharmacology Branch, DTP, NCI, 2023).
Values joined by “and” are separate entries in the source; they are usually repeats but may differ in a detail not shown here. Identical values can stand only once.

System: SW 1271 complex tumor spheroid viability
Experiment: Anticancer human tumor SW 1271 cell line growth inhibition;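 also: spheroids exposed to agents for seven days before readout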;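 as to viability, T/C: percent of DMSO vehicle control luminescence so 100% = vehicle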
Conditions: for viability, T/C: stronger effect = lower value
Summary of the method: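 Complex spheroids of malignant cells with endothelial cells and mesenchymal stem cells; agents alone or combined, from near clinical Cmax (or 10 microM if unknown) down in half-log steps, 0.25% DMSO final.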

[1] = curve of first compound, second compound 0.003 µM
[2] = second compound 0.003 µM, first compound 0.00949 µM
[3] = second compound 0.003 µM, first compound 0.03 µM
[4] = second compound 0.003 µM, first compound 0.0949 µM
[5] = second compound 0.003 µM, first compound 0.3 µM
[6] = second compound 0.003 µM, first compound 0.949 µM
[7] = second compound 0.003 µM, first compound 3 µM

## Cn1ncnc1[C@H]1c2n[nH]c(=O)c3cc(F)cc(c23)N[C@@H]1c1ccc(F)cc1 + COc1cc2c(cc1O)CCNC21CSC2c3c(OC(C)=O)c(C)c4c(c3C(COC1=O)N1C(O)C3Cc5cc(C)c(OC)c(O)c5C(C21)N3C)OCO4
Curve of first compound, second compound 30 pM
  IC50: 12.5 nM
Curve of first compound, second compound 94.9 pM
  IC50: < 9.49 nM
Curve of first compound, second compound 0.0003 µM
  IC50: < 9.49 nM
Curve of first compound, second compound 0.000949 µM
  IC50: < 9.49 nM
[1]
  IC50: < 9.49 nM
Second compound 30 pM, first compound 0.00949 µM
  viability, T/C: 53.8%
Second compound 30 pM, first compound 0.03 µM
  viability, T/C: 38.3%
Second compound 30 pM, first compound 0.0949 µM
  viability, T/C: 30.2%
Second compound 30 pM, first compound 0.3 µM
  viability, T/C: 36.5%
Second compound 30 pM, first compound 0.949 µM
  viability, T/C: 32.9%
Second compound 30 pM, first compound 3 µM
  viability, T/C: 26.3%
Second compound 94.9 pM, first compound 0.00949 µM
  viability, T/C: 37.2%
Second compound 94.9 pM, first compound 0.03 µM
  viability, T/C: 33.5%
Second compound 94.9 pM, first compound 0.0949 µM
  viability, T/C: 32.7%
Second compound 94.9 pM, first compound 0.3 µM
  viability, T/C: 32.9%
Second compound 94.9 pM, first compound 0.949 µM
  viability, T/C: 34.7%
Second compound 94.9 pM, first compound 3 µM
  viability, T/C: 20.4%
Second compound 0.0003 µM, first compound 0.00949 µM
  viability, T/C: 34.7%
Second compound 0.0003 µM, first compound 0.03 µM
  viability, T/C: 35%
Second compound 0.0003 µM, first compound 0.0949 µM
  viability, T/C: 27.7%
Second compound 0.0003 µM, first compound 0.3 µM
  viability, T/C: 32.8%
Second compound 0.0003 µM, first compound 0.949 µM
  viability, T/C: 27.4%
Second compound 0.0003 µM, first compound 3 µM
  viability, T/C: 10.2%
Second compound 0.000949 µM, first compound 0.00949 µM
  viability, T/C: 8.93%
Second compound 0.000949 µM, first compound 0.03 µM
  viability, T/C: 4.22%
Second compound 0.000949 µM, first compound 0.0949 µM
  viability, T/C: 2.24%
Second compound 0.000949 µM, first compound 0.3 µM
  viability, T/C: 5.88%
Second compound 0.000949 µM, first compound 0.949 µM
  viability, T/C: 2.29%
Second compound 0.000949 µM, first compound 3 µM
  viability, T/C: 0.31%
[2]
  viability, T/C: 0.1%
[3]
  viability, T/C: 0.09%
[4]
  viability, T/C: 0.09%
[5]
  viability, T/C: 0.1%
[6]
  viability, T/C: 0.09%
[7]
  viability, T/C: 0.15%

## Cc1sc2c(c1C)C(c1ccc(Cl)cc1)=NC(CC(=O)Nc1ccc(O)cc1)c1nnc(C)n1-2 (configuration not stated) + CC[C@@]1(O)C(=O)OCc2c1cc1n(c2=O)Cc2cc3c(CN(C)C)c(O)ccc3nc2-1
[1]
  IC50: 51.2 nM
Curve of first compound, second compound 0.00949 µM
  IC50: 10.8 nM
Curve of first compound, second compound 0.03 µM
  IC50: < 9.49 nM
Curve of first compound, second compound 0.0949 µM
  IC50: < 9.49 nM
Curve of first compound, second compound 0.3 µM
  IC50: < 9.49 nM
[2]
  viability, T/C: 81.4%
[3]
  viability, T/C: 71.3%
[4]
  viability, T/C: 25.5%
[5]
  viability, T/C: 3.11%
[6]
  viability, T/C: 1.06%
[7]
  viability, T/C: 1.11%
Second compound 0.00949 µM, first compound 0.00949 µM
  viability, T/C: 52.3%
Second compound 0.00949 µM, first compound 0.03 µM
  viability, T/C: 32.1%
Second compound 0.00949 µM, first compound 0.0949 µM
  viability, T/C: 12.8%
Second compound 0.00949 µM, first compound 0.3 µM
  viability, T/C: 2.4%
Second compound 0.00949 µM, first compound 0.949 µM
  viability, T/C: 1.61%
Second compound 0.00949 µM, first compound 3 µM
  viability, T/C: 1.61%
Second compound 0.03 µM, first compound 0.00949 µM
  viability, T/C: 25.2%
Second compound 0.03 µM, first compound 0.03 µM
  viability, T/C: 24.4%
Second compound 0.03 µM, first compound 0.0949 µM
  viability, T/C: 14.6%
Second compound 0.03 µM, first compound 0.3 µM
  viability, T/C: 2.67%
Second compound 0.03 µM, first compound 0.949 µM
  viability, T/C: 1.56%
Second compound 0.03 µM, first compound 3 µM
  viability, T/C: 1.13%
Second compound 0.0949 µM, first compound 0.00949 µM
  viability, T/C: 29%
Second compound 0.0949 µM, first compound 0.03 µM
  viability, T/C: 24.5%
Second compound 0.0949 µM, first compound 0.0949 µM
  viability, T/C: 13.2%
Second compound 0.0949 µM, first compound 0.3 µM
  viability, T/C: 3.31%
Second compound 0.0949 µM, first compound 0.949 µM
  viability, T/C: 1.34%
Second compound 0.0949 µM, first compound 3 µM
  viability, T/C: 2.04%
Second compound 0.3 µM, first compound 0.00949 µM
  viability, T/C: 16.9%
Second compound 0.3 µM, first compound 0.03 µM
  viability, T/C: 16.3%
Second compound 0.3 µM, first compound 0.0949 µM
  viability, T/C: 7.74%
Second compound 0.3 µM, first compound 0.3 µM
  viability, T/C: 1.97%
Second compound 0.3 µM, first compound 0.949 µM
  viability, T/C: 0.91%
Second compound 0.3 µM, first compound 3 µM
  viability, T/C: 0.97%

## COc1cc(C)[nH]c(=O)c1CN1CCc2c(Cl)cc(C(OC)C3COC3)c(Cl)c2C1=O (configuration not stated)
Compound 0.0316 µM
  viability, T/C: 98.5% and 98.1% and 104%
Compound 0.1 µM
  viability, T/C: 101% and 92.7% and 98.5%
Compound 0.316 µM
  viability, T/C: 102% and 86.8% and 91.5%
Compound 1 µM
  viability, T/C: 105% and 89.8% and 94.6%
Compound 3.16 µM
  viability, T/C: 94.8% and 79.1% and 95.3%
Compound 10 µM
  viability, T/C: 84% and 75.4% and 81.9%
Curve of compound
  IC50: > 10000 nM
